In patent publication US9487502B2, “Chemical compounds” (Syngenta Limited, priority 2013, dated 2016):

How the values were obtained:
Format in all cases: in vivo
Parameters in all cases: key: 5=total damage to plant; 0=no damage to plant
Echinochloa crus-galli [1] = test: Post-emergence herbicidal activity, ECHCG; conditions: 1000 g/Ha, sprayed post-emergence (8 days cultivation), evaluated after 13 days, scale 0-5
Protocol: (§1) Seeds of a variety of test species were sown in standard soil in pots. After 8 days cultivation (post-emergence) under controlled conditions in a glasshouse (at 24/16° C., day/night; 14 hours light; 65% humidity), the plants were sprayed with an aqueous spray solution derived from the formulation of the technical active ingredient in acetone/water (50:50) solution containing 0.5% Tween 20 (polyoxyethelyene sorbitan monolaurate, CAS RN 9005-64-5). The test plants were then grown in a glasshouse under controlled conditions (at 24/16° C., day/night; 14 hours light; 65% humidity) and watered twice daily. After 13 days, the test was evaluated (5=total damage to plant; 0=no damage to plant).

Abutilon theophrasti [2] = test: Pre-emergence herbicidal activity, ABUTH; conditions: 1000 g/Ha, sprayed pre-emergence, evaluated after 13 days, scale 0-5
Protocol: as §1, with “After” for “After 8 days”, “for one day (pre-emergence)” for “(post-emergence)”

Alopecurus myosuroides [3] = test: Post-emergence herbicidal activity, ALOMY; conditions: 1000 g/Ha, sprayed post-emergence (8 days cultivation), evaluated after 13 days, scale 0-5
Protocol: as §1

Setaria faberi [4] = test: Pre-emergence herbicidal activity, SETFA; conditions: 1000 g/Ha, sprayed pre-emergence, evaluated after 13 days, scale 0-5
Protocol: as §1, with “After” for “After 8 days”, “for one day (pre-emergence)” for “(post-emergence)”

Amaranthus retroflexus [5] = test: Pre-emergence herbicidal activity, AMARE; conditions: 1000 g/Ha, sprayed pre-emergence, evaluated after 13 days, scale 0-5
Protocol: as §1, with “After” for “After 8 days”, “for one day (pre-emergence)” for “(post-emergence)”

Abutilon theophrasti [6] = test: Post-emergence herbicidal activity, ABUTH; conditions: 1000 g/Ha, sprayed post-emergence (8 days cultivation), evaluated after 13 days, scale 0-5
Protocol: as §1

Alopecurus myosuroides [7] = test: Pre-emergence herbicidal activity, ALOMY; conditions: 1000 g/Ha, sprayed pre-emergence, evaluated after 13 days, scale 0-5
Protocol: as §1, with “After” for “After 8 days”, “for one day (pre-emergence)” for “(post-emergence)”

Amaranthus retroflexus [8] = test: Post-emergence herbicidal activity, AMARE; conditions: 1000 g/Ha, sprayed post-emergence (8 days cultivation), evaluated after 13 days, scale 0-5
Protocol: as §1

Echinochloa crus-galli [9] = test: Pre-emergence herbicidal activity, ECHCG; conditions: 1000 g/Ha, sprayed pre-emergence, evaluated after 13 days, scale 0-5
Protocol: as §1, with “After” for “After 8 days”, “for one day (pre-emergence)” for “(post-emergence)”

Zea mays [10] = test: Pre-emergence herbicidal activity, ZEAMX; conditions: 1000 g/Ha, sprayed pre-emergence, evaluated after 13 days, scale 0-5
Protocol: as §1, with “After” for “After 8 days”, “for one day (pre-emergence)” for “(post-emergence)”

Setaria faberi [11] = test: Post-emergence herbicidal activity, SETFA; conditions: 1000 g/Ha, sprayed post-emergence (8 days cultivation), evaluated after 13 days, scale 0-5
Protocol: as §1

Zea mays [12] = test: Post-emergence herbicidal activity, ZEAMX; conditions: 1000 g/Ha, sprayed post-emergence (8 days cultivation), evaluated after 13 days, scale 0-5
Protocol: as §1

| SMILES | ECHCG damage score, application post-emergence (Echinochloa crus-galli [1]) | ABUTH damage score, application pre-emergence (Abutilon theophrasti [2]) | ALOMY damage score, application post-emergence (Alopecurus myosuroides [3]) | SETFA damage score, application pre-emergence (Setaria faberi [4]) | AMARE damage score, application pre-emergence (Amaranthus retroflexus [5]) | ABUTH damage score, application post-emergence (Abutilon theophrasti [6]) | ALOMY damage score, application pre-emergence (Alopecurus myosuroides [7]) | AMARE damage score, application post-emergence (Amaranthus retroflexus [8]) | ECHCG damage score, application pre-emergence (Echinochloa crus-galli [9]) | ZEAMX damage score, application pre-emergence (Zea mays [10]) | SETFA damage score, application post-emergence (Setaria faberi [11]) | ZEAMX damage score, application post-emergence (Zea mays [12]) |
| --- | --- | --- | --- | --- | --- | --- | --- | --- | --- | --- | --- | --- |
| CCN1C(=O)N(c2cc(C(C)(C)C)ncn2)C(O)C1OC (stereo not drawn) [Example A26] | 0 | 2 | 1 | 0 | 1 | 1 | 0 | 0 | 0 | 1 | 2 | 1 |
| CCCOC1C(OCCC)N(c2cc(C(C)(C)C)ncn2)C(=O)N1C (stereo not drawn) [Example A28] | 0 | 0 | 0 | 0 | 0 | 0 | 0 | 0 | 0 | 0 | 0 | 0 |
| COC1C(O)N(c2cc(C(C)(C)C)ncn2)C(=O)N1OC (stereo not drawn) [Example A7] | 4 | 5 | 5 | 4 | 5 | 5 | 4 | 5 | 4 | 4 | 5 | 4 |
| CC1C(O)N(c2cc(C(C)(C)C#N)ncn2)C(=O)N1C (stereo not drawn) [Example A24] | 5 | 5 | 4 | 5 | 5 | 5 | 4 | 5 | 5 | 2 | 5 | 5 |
| CN1C(=O)N(c2cc(C(C)(C)C)ncn2)C(O)C1CC(F)(F)F (stereo not drawn) [Example A34] | 0 | 4 | 3 | 2 | 5 | 5 | 1 | 2 | 1 | 0 | 3 | 2 |
| CCOC1C(O)N(c2cc(C(C)(C)C#N)ncn2)C(=O)N1C (stereo not drawn) [Example A18] | 5 | 5 | 4 | 4 | 5 | 5 | 1 | 5 | 3 | 2 | 5 | 5 |
| COCC1NC(=O)N(c2cc(C(C)(C)C)ncn2)C1O (stereo not drawn) [Example A30] | 3 | 5 | 4 | 4 | 5 | 5 | 4 | 5 | 4 | 1 | 4 | 1 |
| CCCOC1C(O)N(c2cc(C(C)(C)C)ncn2)C(=O)N1C (stereo not drawn) [Example A10] | 4 | 4 | 4 | 4 | 5 | 5 | 4 | 5 | 2 | 2 | 4 | 2 |
| COC1C(O)N(c2cc(C(C)(C)C)ncn2)C(=O)N1C (stereo not drawn) [Example A11] | 4 | 4 | 4 | 4 | 5 | 5 | 3 | 5 | 3 | 1 | 5 | 1 |
| CC1NC(=O)N(c2cc(C(C)(C)C)ncn2)C1O (stereo not drawn) [Example A32] | 2 | 3 | 3 | 1 | 2 | 5 | 1 | 2 | 1 | 0 | 2 | 1 |
| CC1C(O)N(c2cc(C(C)(C)F)ncn2)C(=O)N1C (stereo not drawn) [Example A20] | 5 | 5 | 4 | 5 | 5 | 5 | 3 | 5 | 4 | 4 | 5 | 4 |
| CCOC1C(O)N(c2cc(C(C)(C)C)ncn2)C(=O)N1C (stereo not drawn) [Example A5, 1-(6-tert-butylpyrimidin-4-yl)-4-ethoxy-5-hydroxy-3-methyl-imidazolidin-2-one] | 5 | 5 | 5 | 5 | 5 | 5 | 4 | 5 | 5 | 2 | 5 | 4 |
| CCC1C(O)N(c2cc(C(C)(C)C)ncn2)C(=O)N1OC (stereo not drawn) [Example A19] | 3 | 3 | 3 | 5 | 5 | 5 | 4 | 5 | 5 | 3 | 2 | 5 |
